One series relates to VCAM-1. The experiment in a line: In Vitro VCAM-1 Assay (TNF-α stimulated HAEC or HPAEC, cell ELISA). Type of series: cell-based, human. The following applies: Homo sapiens, 16 h, TNF-α (1 ng/ml) stimulated HAEC or HPAEC, approximately 16 hours. The procedure:
Cell Culture and compound dosing: Cultured primary human aortic (HAEC) or pulmonary (HPAEC) endothelial cells were obtained from Clonetics, Inc., and were used below passage 9. Cells were seeded in 96 well plates such that they would reach 90–95% confluency by the following day. On the following day the cells were stimulated with TNF-α (1 ng/ml) in the presence or absence of compounds dissolved in DMSO such that the final concentration of DMSO is 0.25% or less. To establish a dose curve for each compound, four concentrations in 2- to 5-fold increments were used. Cells were exposed to TNF-α and compounds for approximately 16 hours. The next day the cells were examined under microscope to score for visual signs of toxicity or cell stress.
Following 16 hr exposure to TNF-α and compound the media was discarded and the cells were washed once with Hanks Balanced Salt Solution (HBSS)/Phosphate buffered saline (PBS) (1:1). Primary antibodies against VCAM-1 (0.25 μg/ml in HBSS/PBS+5% FBS) were added and incubated for 30–60 minutes at 37° C. Cells were washed with HBSS/PBS three times, and secondary antibody Horse Radish Peroxidase (HRP)-conjugated goat anti-mouse IgG (1:500 in HBSS/PBS+5% FBS) were added and incubated for 30 minutes at 37° C. Cells were washed with HBSS/PBS four time and TMB substrate were added and incubated at room temperature in the dark until there was adequate development of blue color. The length of time of incubation was typically 5–15 minutes. 2N sulfuric acid was added to stop the color development and the data was collected by reading the absorbance on a BioRad ELISA plate reader at OD 450 nm. The results are expressed as IC50 values (the concentration (micromolar) of compound required to inhibit 50% of the maximal response of the control sample stimulated by TNF-α only).
(An ELISA detects its analyte on a solid surface through an enzyme-linked reagent.)

Structures are written as SMILES. pIC50: −log10 of the molar value.

For 28 compounds, melting point and IC50 results are on record in US7094801B2, “Chalcone derivatives and their use to treat diseases” (Atherogenics, Inc., priority 2001, dated 2006).

The term melting point denotes the temperature of the solid-liquid transition. As a reminder, the pIC50 is the IC50 on a negative log10 scale, so that one unit is a factor of ten. The low end stands for a large IC50, the high end for a small IC50. `COc1cc(/C=C/C(=O)c2ccc(C(=O)O)cc2)cc(-c2cccs2)c1OC` [Example 8, 4-[3E-(3,4-Dimethoxy-5-thiophen-2-yl-phenyl)-acryloyl]-benzoic acid] displayed a melting point of 231 °C. In the series with VCAM-1, this compound showed a pIC50 of more than 6.00.

Consider `Cl.O=C(O)c1ccc(C(=O)/C=C/c2cc(-c3cccs3)ccc2OCCCN2CCOCC2)cc1` [Example 65, 4-{3E-[2-(3-Morpholin-4yl-propoxy)-5-thiophen-2-yl-phenyl]-acryloyl}-benzoic acid, hydrochloride], for which the melting point was in the range of 234 to 236 °C. Besides, the pIC50 in the series on VCAM-1 is more than 6.00.

`O=C(O)c1ccc(C(=O)/C=C/c2ccc(F)c(-c3cccs3)c2)cc1` [Example 21, 4-[3E-{4-Fluoro-3-(thiophen-2-yl)-phenyl}-acryloyl]-benzoic acid]: the melting point lay in the range of 242 to 244 °C. For the same compound, in the series with VCAM-1, the pIC50 was more than 5.30.

Compound `COc1cc(OC)c(-c2nc3cccnc3[nH]2)cc1/C=C/C(=O)c1ccc(C(=O)O)cc1` [Example 76, 4-{3E-[5-(3H-Imidazo[4,5-b]pyridin-2-yl)-2,4-dimethoxy-phenyl]-acryloyl}-benzoic acid] registered a melting point of 222 to 224 °C. In addition, the pIC50 with VCAM-1 is less than 5.00.

On to `O=C(O)c1ccc(C(=O)/C=C/c2ccc(-c3cccs3)cc2F)cc1` [Example 30, 4-[3E-(2-Fluoro-4-thiophen-2-yl-phenyl)-acryloyl]-benzoic acid], for which the melting point was more than 260 °C. The same compound showed a pIC50 with VCAM-1 of more than 6.00.

`COc1cc(OC)c(-c2cn[nH]c2)cc1/C=C/C(=O)c1ccc(C(=O)O)cc1` [Example 74, 4-{3E-[2,4-Dimethoxy-5-(1H-pyrazol-4-yl)-phenyl]-acryloyl}-benzoic acid] returned a melting point of more than 250 °C. In the series with VCAM-1, this compound showed a pIC50 of less than 5.00.

With `COc1cc(OC)c(-c2nc3ccccc3[nH]2)cc1/C=C/C(=O)c1ccc(C(=O)O)cc1.Cl` [Example 70, 4-{3E-[5-(1H-Benzoimidazol-2-yl)-2,4-dimethoxy-phenyl]-acryloyl}-benzoic acid], the melting point was > 240 °C (dec.). Moreover, the pIC50 with VCAM-1 is more than 5.30.

In turn, `COc1cc(OCCN2CCOCC2)c(/C=C/C(=O)c2ccc(C(N)=O)cc2)cc1-c1cccs1` [Example 92, 4-{3E-[4-Methoxy-2-(2-morpholin-4-yl-ethoxy)-5-thiophen-2-yl-phenyl]-acryloyl}-benzamide] yielded a melting point of 183 to 184 °C. Also, the pIC50 in the series on VCAM-1 was more than 6.00.

Consider `COc1cc(OC)c(-c2cc3ccccc3[nH]2)cc1/C=C/C(=O)c1ccc(C(=O)O)cc1` [Example 61, 4-{3E-[5-(1H-Indol-2-yl)-2,4-dimethoxy-phenyl]-acryloyl}-benzoic acid], for which the melting point is 210 to 212 °C. The same compound gave a pIC50 in the series on VCAM-1 of more than 6.00.

The compound `COc1cc(OC)c(-c2cc3ccccc3n2C(=O)OC(C)(C)C)cc1/C=C/C(=O)c1ccc(S(N)(=O)=O)cc1` [Example 83, 2-{2,4-Dimethoxy-5-[3-oxo-3-(4-aminosulfonyl-phenyl)-E-propenyl]-phenyl}-indole-1-carboxylic acid tert-butyl ester] came in with a melting point of 120 to 122 °C. Also, in the series with VCAM-1, the pIC50 was more than 6.00.

With `COc1cc(OCn2nnc3ccccc32)c(/C=C/C(=O)c2ccc(S(N)(=O)=O)cc2)cc1-c1cccs1` [Example 115, 4-{3E-[2-(Benzotriazol-1-ylmethoxy)-4-methoxy-5-thiophen-2-yl-phenyl]-acryloyl}-benzenesulfonamide], the melting point is 255 °C (dec.). In addition, the pIC50 in the series on VCAM-1 is more than 5.30.

Take `COc1cc(OCC(=O)N(C)C)c(/C=C/C(=O)c2ccc(C(=O)O)cc2)cc1-c1cccs1` [Example 67, 4-[3E-(2-Dimethylcarbamoylmethoxy-4-methoxy-5-thiophen-2-yl-phenyl)-acryloyl]-benzoic acid]: the melting point lay in the range of 228 to 229 °C. Also, the pIC50 in the series with VCAM-1 was more than 5.00.

The compound `COc1cc(/C=C/C(=O)c2ccc(NS(C)(=O)=O)cc2)cc(-c2cccs2)c1OC` [Example 14, N-{4-[3E-(3,4-Dimethoxy-5-thiophen-2-yl-phenyl)-acryloyl]-phenyl}-methanesulfonamide] registered a melting point of 71 to 75 °C. This compound gave a negative logarithm of the IC50 (pIC50) in the series on VCAM-1 of more than 6.00.

Consider `COc1cc(OC)c(-c2cc3ccccc3s2)cc1/C=C/C(=O)c1ccc(S(=O)(=O)NC(=O)C(C)C)cc1` [Example 87, 4-[3E-(5-Benzo[b]thiophen-2-yl-2,4-dimethoxy-phenyl)-acryloyl]-N-isobutyryl-benzenesulfonamide], for which the melting point is > 240 °C (dec.). The pIC50 with VCAM-1 was more than 6.00.

In the case of `COc1cc(OC(C)(C)C(=O)O)c(-c2cccs2)cc1/C=C/C(=O)c1ccc(N(C)S(C)(=O)=O)cc1` [Example 101, 2-(4-{3-[4-(Methanesulfonyl-methyl-amino)-phenyl]-3-oxo-E-propenyl}-5-methoxy-2-thiophen-2-yl-phenoxy)-2-methyl-propionic acid], the melting point is 197 to 200 °C. The pIC50 with VCAM-1 was less than 5.00.

In turn, `COc1cc(OC)c(-c2cccs2)cc1/C=C/C(=O)c1ccccc1C(=O)O` [Example 35, 2-[3E-(2,4-Dimethoxy-5-thiophen-2-yl-phenyl)-acryloyl]-benzoic acid] registered a melting point of 196 to 198 °C. Also, the negative logarithm of the IC50 (pIC50) in the series on VCAM-1 is less than 5.00.

Compound `COc1cc(/C=C/C(=O)c2ccc3c(c2)OC(CO)(CO)O3)cc(-c2cccs2)c1OC` [Example 1, 1-(2,2-Bis-hydroxymethyl-benzo[1,3]dioxol-5-yl)-3E-(3,4-dimethoxy-5-thiophen-2-yl-phenyl)-propenone] returned a melting point of 74 to 80 °C. Moreover, the negative-log IC50 (pIC50) with VCAM-1 is more than 6.00.

Compound `Nc1ccc(C(=O)/C=C/c2ccc(-c3cccs3)cc2)cc1` [Example 12, 1-(4-Amino-phenyl)-3E-(4-thiophen-2-yl-phenyl)-propenone] returned a melting point of 185 to 187 °C. Also, the pIC50 in the series with VCAM-1 was more than 5.30.

With `COc1cc(OC)c(-c2csc(C)n2)cc1/C=C/C(=O)c1ccc(C(=O)O)cc1` [Example 69, 4-{3E-[2,4-Dimethoxy-5-(2-methyl-thiazol-4-yl)-phenyl]-acryloyl}-benzoic acid], the melting point is 201 to 202 °C (dec.). The compound also showed a pIC50 in the series on VCAM-1 of more than 5.30.

Take `CSc1ccc(C(=O)/C=C/c2ccc(-c3cccs3)cc2)cc1` [Example 24, 1-(4-Methylthiophenyl)-3E-(4-thiophen-2-yl-phenyl)-propenone]: the melting point lay in the range of 138 to 140 °C. This compound had a pIC50 with VCAM-1 of less than 5.00.

`COc1cc(OC)c(-c2c(C)noc2C)cc1/C=C/C(=O)c1ccc(C(=O)O)cc1` [Example 33, 4-{3E-[5-(3,5-Dimethyl-isoxazol-4-yl)-2,4-dimethoxy-phenyl]-acryloyl}-benzoic acid] gave a melting point of more than 260 °C. Further, the pIC50 in the series on VCAM-1 was more than 5.30.

Take `CCOc1cc(OC)c(/C=C/C(=O)c2ccc(C(=O)O)cc2)cc1-c1cccs1` [Example 53, 4-[3E-(4-Ethoxy-2-methoxy-5-thiophen-2-yl-phenyl)-acryloyl]-benzoic acid]: the melting point fell in the range of 210 to 212 °C. Also, the negative-log IC50 (pIC50) in the series with VCAM-1 is more than 5.30.

`COc1ncc(-c2cc(/C=C/C(=O)c3ccc(C(=O)O)cc3)c(OC)cc2OC)c(OC)n1` [Example 38, 4-{3E-[5-(2,4-Dimethoxy-pyrimidin-5-yl)-2,4-dimethoxy-phenyl]-acryloyl}-benzoic acid] registered a melting point of 203 to 205 °C. Moreover, the pIC50 with VCAM-1 was more than 5.00.

For the compound `COc1cc(-c2cccs2)cc(OC)c1/C=C/C(=O)c1ccc(C(=O)O)cc1` [Example 37, 4-[3E-(2,6-Dimethoxy-4-thiophen-2-yl-phenyl)-acryloyl]-benzoic acid], the melting point lay in the range of 256 to 258 °C. The same compound gave a pIC50 in the series with VCAM-1 of less than 5.00.

`COc1cc(OC)c(-c2cc3ccccc3s2)cc1/C=C/C(=O)c1ccc(N)cc1` [Example 13, 1-(4-Amino-phenyl)-3E-(5-benzo[b]thiophen-2-yl-2,4-dimethoxy-phenyl)-propenone] displayed a melting point of 98 to 104 °C. In the series with VCAM-1, this compound gave a pIC50 of more than 5.30.

For the compound `O=C(O)c1ccc(C(=O)/C=C/c2ccc(N3CCCC3)c(-c3cccs3)c2)cc1` [Example 20, 4-[3E-(4-Pyrrolidin-1-yl-3-thiophen-2-yl-phenyl)-acryloyl]-benzoic acid], the melting point was 212 to 214 °C (dec.). The pIC50 with VCAM-1 was less than 5.00.

Turning to `COc1cc(OCc2nc3ccccc3[nH]2)c(/C=C/C(=O)c2ccc(S(N)(=O)=O)cc2)cc1-c1cccs1` [Example 113, 4-{3E-[2-(1H-Benzoimidazol-2-ylmethoxy)-4-methoxy-5-thiophen-2-yl-phenyl]-acryloyl}-benzenesulfonamide], the melting point was 235 to 237 °C (dec.). Moreover, the pIC50 in the series on VCAM-1 is more than 5.30.

For `COc1cc(O)c(-c2cccs2)cc1/C=C/C(=O)c1ccc(C(=O)O)cc1` [Example 54, 4-[3E-(4-Hydroxy-2-methoxy-5-thiophen-2-yl-phenyl)-acryloyl]-benzoic acid], the melting point is 243 °C (dec.). In the series with VCAM-1, the negative-log IC50 (pIC50) was more than 5.00.
